# Assay results reported in PMC12195707, “Evaluation of Antitumoral Activity in a 3D Cell Model of a Src Inhibitor Prodrug for Glioblastoma Treatment” (Pharmaceutics, 2025).
# How the values were obtained:
# [1] = PAMPA assay, gastrointestinal (GI) membrane; type: in vitro ADME; settings: four hours
# Procedure: (§1) After being first dissolved in DMSO, the compounds were diluted 1:1 v/v using phosphate buffer (PBS 10 mM, pH 7.4). […] The gastrointestinal (GI) and blood–brain barrier (BBB) phospholipidic bilayers were mimicked by covering each well of the filter plate with either a 10%w/v CHCl3/dodecane brain polar lipid solution or a 1%w/v L-α-phosphatidylcholine solution (PC) in dodecane. After placing a DMSO/PBS 1:1v/v combination solution in the acceptor plate, the sandwich was gently shaken and incubated at room temperature for four hours. Samples were collected from the upper and bottom plates at the end time point, and the LC-UV/MS method was used for analysis. As previously reported, the apparent permeability (Papp cm/s × 10^−6) was quantified.
# [2] = PAMPA assay, blood-brain barrier (BBB) membrane
# Procedure: as §1
# orthotopic GBM model = test system: orthotopic GBM model; design: method as in PMID 28650650; settings: compared with SI306; cited from earlier work
SMILES,"Papp at 4 h ([1]; pH 7.4, room temperature, read-out: Apparent permeability Papp) [×10⁻⁶ cm/s]",Membrane retention MR ([1]; room temperature) [%],"Apparent permeability Papp ([2]; BBB PAMPA, room temperature, four hours) [cm/s × 10^−6]","Membrane retention MR ([2]; PAMPA, 4 h, pH 7.4) [%]",Efficacy in orthotopic GBM model (orthotopic GBM model)
"CC(C)NCC(O)COc1cccc2ccccc12 (centres unmarked) [Propranolol, propranolol, reference compound]",19.2 ± 0.37,8.89 ± 1.12,17.16 ± 0.31,10.73 ± 1.33,–
CN1CCN(CCOC(=O)N(c2cccc(Br)c2)c2nc(SCCN3CCOCC3)nc3c2cnn3CC(Cl)c2ccccc2)CC1 (centres unmarked) [SI306-PD1],–,–,–,–,greater efficacy than SI306
